Assay results published in the NIST ThermoML archive (doi:10.1016/j.fluid.2015.05.026).
Values joined by “and” are separate entries in the source; they are usually repeats but may differ in a detail not shown here. Identical values can stand only once.

Experiments:
[1] = Liquid, Closed cell (Static) method
[2] = molar heat capacity at constant pressure; settings: 101.33 kPa, Liquid, Large sample (1 g) DSC

C=CC(O)CCC (configuration not stated) [1-hexen-3-ol]
Settings | molar heat capacity at constant pressure [J/K/mol] | vapor or sublimation pressure
[1], 238.2 K | – | 0.001239 kPa and 0.001245 kPa and 0.001252 kPa
[1], 243.15 K | – | 0.002307 kPa and 0.002309 kPa and 0.00231 kPa
[1], 248.15 K | – | 0.004181 kPa
[1], 248.2 K | – | 0.004188 kPa and 0.004193 kPa
[1], 253.15 K | – | 0.007373 kPa and 0.007376 kPa
[1], 258.15 K | – | 0.01269 kPa and 0.0127 kPa and 0.01271 kPa
[1], 263.15 K | – | 0.0214 kPa and 0.02141 kPa
[1], 268.15 K | – | 0.03517 kPa and 0.03518 kPa
[1], 273.15 K | – | 0.05668 kPa and 0.05669 kPa and 0.05671 kPa
[1], 278.15 K | – | 0.08933 kPa and 0.08939 kPa
[1], 283.15 K | – | 0.1383 kPa and 0.1384 kPa
[1], 288.15 K | – | 0.2097 kPa and 0.2098 kPa
[1], 293.15 K | – | 0.3122 kPa and 0.3123 kPa
[1], 298.15 K | – | 0.4574 kPa and 0.4576 kPa
[1], 303.15 K | – | 0.6587 kPa and 0.6589 kPa
[1], 308.15 K | – | 0.9353 kPa and 0.9355 kPa
[2], 265 K | 235.9 | –
[2], 270 K | 241 | –
[2], 275 K | 246 | –
[2], 280 K | 250.8 | –
[2], 285 K | 255.5 | –
[2], 290 K | 260.1 | –
[2], 295 K | 264.8 | –
[2], 300 K | 269.3 | –
[2], 305 K | 273.6 | –
[2], 310 K | 277.6 | –
[2], 315 K | 281.6 | –
[2], 320 K | 285.4 | –
[2], 325 K | 289.1 | –
[2], 330 K | 292.5 | –
[2], 335 K | 295.4 | –
[2], 340 K | 298.2 | –
[2], 345 K | 301.2 | –
[2], 350 K | 303.8 | –
[2], 354.7 K | 305.5 | –

CCC/C=C/CO [(E)-2-hexen-1-ol]
Settings | molar heat capacity at constant pressure [J/K/mol] | vapor or sublimation pressure
[1], 238.15 K | – | 0.000207 kPa and 0.00021 kPa and 0.000211 kPa
[1], 243.15 K | – | 0.000404 kPa and 0.000406 kPa and 0.000407 kPa
[1], 248.15 K | – | 0.000768 kPa and 0.000772 kPa
[1], 253.15 K | – | 0.001399 kPa and 0.001397 kPa
[1], 258.15 K | – | 0.002485 kPa and 0.002492 kPa and 0.002493 kPa
[1], 263.15 K | – | 0.004314 kPa and 0.004317 kPa and 0.004318 kPa
[1], 268.15 K | – | 0.007304 kPa and 0.00731 kPa and 0.007315 kPa
[1], 273.15 K | – | 0.01214 kPa
[1], 273.65 K | – | 0.01275 kPa and 0.01276 kPa
[1], 278.15 K | – | 0.01974 kPa and 0.01975 kPa
[1], 283.15 K | – | 0.03147 kPa and 0.03148 kPa
[1], 288.15 K | – | 0.04923 kPa and 0.04926 kPa and 0.04927 kPa
[1], 293.15 K | – | 0.07568 kPa and 0.07569 kPa
[1], 298.15 K | – | 0.1143 kPa
[1], 303.15 K | – | 0.1699 kPa
[1], 308.15 K | – | 0.2483 kPa and 0.2484 kPa
[2], 265 K | 211.9 | –
[2], 270 K | 215.1 | –
[2], 275 K | 218.4 | –
[2], 280 K | 221.9 | –
[2], 285 K | 225.4 | –
[2], 290 K | 229.2 | –
[2], 295 K | 233.3 | –
[2], 300 K | 237.2 | –
[2], 305 K | 241.3 | –
[2], 310 K | 245.3 | –
[2], 315 K | 249.5 | –
[2], 320 K | 253.6 | –
[2], 325 K | 257.8 | –
[2], 330 K | 261.9 | –
[2], 335 K | 265.6 | –
[2], 340 K | 269.5 | –
[2], 345 K | 273.3 | –
[2], 350 K | 276.9 | –
[2], 355 K | 280.1 | –

CC/C=C\CCO [(Z)-3-hexen-1-ol]
Settings | molar heat capacity at constant pressure [J/K/mol] | vapor or sublimation pressure
[1], 238.15 K | – | 0.000301 kPa and 0.000303 kPa and 0.000304 kPa
[1], 243.15 K | – | 0.000577 kPa and 0.000579 kPa and 0.00058 kPa
[1], 248.15 K | – | 0.001062 kPa and 0.001066 kPa and 0.001069 kPa
[1], 253.15 K | – | 0.001923 kPa and 0.001926 kPa and 0.001921 kPa
[1], 258.15 K | – | 0.003383 kPa and 0.003393 kPa and 0.003395 kPa
[1], 263.15 K | – | 0.005802 kPa and 0.005803 kPa and 0.005805 kPa
[1], 268.15 K | – | 0.009727 kPa and 0.009728 kPa and 0.009737 kPa
[1], 273.65 K | – | 0.01674 kPa
[1], 278.15 K | – | 0.02561 kPa and 0.02562 kPa and 0.02563 kPa
[1], 283.15 K | – | 0.04036 kPa and 0.04037 kPa
[1], 288.15 K | – | 0.06241 kPa and 0.06244 kPa
[1], 293.15 K | – | 0.09491 kPa and 0.09494 kPa and 0.09496 kPa
[1], 298.15 K | – | 0.142 kPa
[1], 303.15 K | – | 0.2089 kPa and 0.209 kPa
[1], 308.15 K | – | 0.3032 kPa and 0.3034 kPa
[2], 265 K | 206.7 | –
[2], 270 K | 210.2 | –
[2], 275 K | 213.9 | –
[2], 280 K | 217.6 | –
[2], 285 K | 221.4 | –
[2], 290 K | 225.4 | –
[2], 295 K | 229.7 | –
[2], 300 K | 234 | –
[2], 305 K | 238.2 | –
[2], 310 K | 242.4 | –
[2], 315 K | 246.7 | –
[2], 320 K | 250.9 | –
[2], 325 K | 255.2 | –
[2], 330 K | 259.2 | –
[2], 335 K | 263.1 | –
[2], 340 K | 266.8 | –
[2], 345 K | 270.8 | –
[2], 350 K | 274.6 | –
[2], 355 K | 277.8 | –

CCCCCCO [hexan-1-ol]
[1]
Settings | vapor or sublimation pressure
237.95 K | 0.000143 kPa
238 K | 0.000143 kPa and 0.000145 kPa
243.2 K | 0.000296 kPa
243.25 K | 0.000293 kPa
248.2 K | 0.000569 kPa and 0.00056 kPa and 0.000564 kPa
253.15 K | 0.001054 kPa and 0.001051 kPa and 0.001057 kPa
258.15 K | 0.001918 kPa and 0.001915 kPa and 0.00192 kPa
263.15 K | 0.003393 kPa and 0.003385 kPa
268.15 K | 0.005838 kPa and 0.005843 kPa and 0.005839 kPa
273.15 K | 0.009866 kPa and 0.009857 kPa
273.65 K | 0.01039 kPa
278.15 K | 0.01629 kPa and 0.0163 kPa
283.15 K | 0.02639 kPa and 0.02642 kPa
288.15 K | 0.04189 kPa and 0.0419 kPa
293.15 K | 0.06536 kPa and 0.06537 kPa
298.15 K | 0.1001 kPa
303.15 K | 0.1505 kPa
308.15 K | 0.223 kPa and 0.223 kPa and 0.2231 kPa
